Square brackets hold non-standard residues; d marks the D form. Peptide text beside a SMILES is read from it. Orn = NCCC[C@H](N)C(=O)O; βAla = NCCC(=O)O
Assay type: in vivo, BALB/c mice
Settings: BALB/c female, 10 mg/kg i.p., 5 day-on 2 day-off, two weeks, average n=5/group
Protocol: Based on strong and selective MYC down-regulation and cell killing activity of cancer cells in vitro, we next studied the therapeutic potential of VGN50 by examining the efficacy of cancer cell killing over toxicities to mice in a PEL xenograft model with BCBL-1 cells. Pilot studies determined that the peptide was well-tolerated in immunocompetent mice when administered as 10 mg/kg peptide via intraperitoneal (i.p.) injection with a 5-day-on 2-day-off schedule for 2 weeks, as shown by no notable changes in body weight, complete blood counts, and serum biochemical properties (Supplementary Fig. 5). Based on the drug schedule, we examined the effects of the peptide on xenograft PEL cell growth. In this established model, BCBL-1 cells grow in the peritoneal cavity resulting in the accumulation of ascites, which can be measured as a body weight gain that corresponds to the volume of ascites. We inoculated male NRG mice with 2 × 10^7 BCBL-1 cells via i.p. injection followed by injections of VGN50 (10 mg/kg), mutant control peptide or PBS, daily for 10 days starting from 2 days after (day 0) tumor inoculation. All mice in the control PBS-treated groups reached the humane endpoint by 10 days (Fig. 6a). […] At the termination point, tumor growth was also validated by flow cytometry analysis of PEL cells in ascites fluid (Fig. 6b, c). […] A similar phenotype is reported in MYC knock-out cardiac myocytes and keratinocytes[56],[57].
PBS VGN50 Mutant Normal ranges […]
Ext ended Dat a Fi gure 5. BALB/ c mi ce ( 8 weeks ol d, female, n=5/ gr oup) wer e i nj ect ed wi t h 10mg/ kg of VGN50 or mut ant pept i de i n 200 uL i.p. wi t h a 5 day-on 2 day off schedul e f or t wo week s . Body wei ght changes wer e measur ed dai l y ( a) . At t he end of t he exper i ment , f r esh bl ood and ser um col l ect ed wer e subj ect ed f or complet e blood count s and serum biochemical pr oper t i es, r espect i vel y ( b) .
(1 picture or pasted object on this page, not shown here)

CC(C)C[C@H](NC(=O)CCNC(=O)[C@H](CCCNC(=N)N)NC(=O)[C@H](CCCNC(=N)N)NC(=O)[C@H](CCCNC(=N)N)NC(=O)[C@H](CCCN)NC(=O)[C@H](CCCNC(=N)N)NC(=O)[C@H](CCCNC(=N)N)NC(=O)[C@H](CCCCN)NC(=O)[C@H](CCCCN)NC(=O)[C@H](N)CCCNC(=N)N)C(=O)N[C@@H](CO)C(=O)N[C@@H](CO)C(=O)N[C@@H](C)C(=O)N[C@@H](C)C(=O)N[C@@H](C)C(=O)NCC(=O)N[C@@H](CC(C)C)C(=O)N[C@@H](Cc1ccc(O)cc1)C(=O)N[C@@H](CCC(N)=O)C(=O)N[C@@H](CC(C)C)C(=O)N[C@@H](CC(=O)O)C(=O)N[C@H](C(=O)O)[C@@H](C)O [Mt-P] (H-[dR]KKRR[Orn]RRR[βAla]LSSAAAGLYQLDT-OH; N-terminus and C-terminus assumed)
Absolute Basophil cells (normal 0.0-0.1): 0.06 K/ul
Absolute Eosinophil cells (normal 0.0-0.1): 0.14 K/ul
Total Bilirubin (normal 0.0-0.2): 0.05 mg/dL
Creatinine (normal 0.0-0.3): 0.20 mg/dL
Basophil % (normal 0.0-0.5): 0.70%
Eosinophil % (normal 0.0-0.8): 2.14%
Alanine Transaminase (normal 0-403): 82.85 U/L
Aspartate Transaminase (normal 0-552): 651.13 U/L
Absolute Monocyte cells (normal 0.2-1.0): 0.43 K/ul
Absolute Neutrophil cells (normal 1.0-3.7): 1.12 K/ul
Monocyte % (normal 2.5-7.5): 5.52%
Albumin (normal 2.9-4.0): 3.67 g/dL
Absolute Lymphocyte cells (normal 4.3-10.6): 2.54 K/ul
Total Protein (normal 4.7-6.1): 4.81 g/dL
MPV (normal 5.0-20.0): 3.05 fL
WBC (normal 5.1-14.7): 4.22 K/ul
Potassium (normal 6.9-10.0): 6.90 mmol/L
Phosphorus (normal 7.5-10.7): 7.46 mg/dL
Calcium (normal 9.6-11-5): 9.39 mg/dL
Hemoglobin (normal 11.7-16.2): 7.07 g/dL
RDW % (normal 12.4-27.0): 10.08%
Neutrophil % (normal 12.5-31.2): 16.70%
MCH (normal 13.3-16.7): 7.62 pg
Blood Urea Nitrogen (normal 15.2-34.7): 20.03 mg/dL
MCHC (normal 27.6-32.9): 13.18 g/dL
Hematocrit % (normal 38.3-54.0): 27.72%
MCV (normal 45.3-53.6): 29.04 fL
Alkaline Phosphatase (normal 49-172): 129.20 U/L
Lymphocyte % (normal 62.9-82.7): 31.21%
Chloride (normal 105-118): 112.13 mmol/L
Glucose (normal 130-254): 194.73 mg/dL
Sodium (normal 150-160): 145.25 mmol/L
Platelets (normal 574-1079): 333.29 K/uL
Amylase (normal 2463-6660): 1624.05 U/L

Reference: publication PMC8639922, “KSHV transactivator-derived small peptide traps coactivators to attenuate MYC and inhibits leukemia and lymphoma cell growth” (Communications Biology, 2021)
